Values after ≈ are worked out from the molar mass of the structure shown.
Assays:
[1] = Capacity of drug loading of the electrospun polymer device; format: physicochemical; conditions: larger quantities cause supersaturation of the solution
From the text: With time, the solvent would evaporate leaving a crystallized non-homogenous mixture of polymer and drug.

[2] = cited from earlier work
[3] = in vivo; cited from earlier work
[4] = intravenous infusion, doses 30 to 170 mg/m^2; cited from earlier work

| maximum amount of drug loaded in the electrospun polymer device [1] [wt %] | SMILES | water solubility [2] [mg/mL] | half-life [3] | average terminal half-life [4] [min] | clearance [4] [mL/min/kg] | steady-state volume of distribution [4] [L/kg] |
| --- | --- | --- | --- | --- | --- | --- |
| 5 | COc1ccccc1OCC(O)CO (racemic) [Guaifenesin, (2RS)-3-(2-Methoxyphenoxy)propane-1,2-diol] | 50 (≈ 252 mM) | approximately 1 hour |  |  |  |
| 1 | C[C@]12CC[C@@H]3c4ccc(O)cc4CC[C@H]3[C@@H]1CC[C@@H]2O [Beta-Estradiol, 17β-estradiol] |  |  |  |  |  |
|  | O=NN(CCCl)C(=O)NCCCl [BCNU] |  |  | 22 | 56 | 3.25 |
